From PMC5584254, “Identification of novel small molecule Beclin 1 mimetics activating autophagy” (Oncotarget, 2017)
Counter-ions that a name gives are not always drawn.

Assays:
[1] = test system: PC-3; experiment: MTT-based cytotoxicity assay, PC-3; settings: Homo sapiens, averages of at least two independent experiments, read-out: Cytotoxicity in different cell lines (IC50, μM) PC-3
Excerpt: (§1) Human prostate cancer cell lines PC-3 and DU145, were purchased from American Type Culture Collection (ATCC) and used within 50 passages. PC-3a is a derivative of PC-3 that is resistant to chemo/radiotherapy, established in our lab and confirmed by genotyping. All cells were maintained in DMEM (Mediatech, Manassas, VA) supplemented with 10% fetal bovine serum (FBS) (Sigma-Aldrich, St. Louis, MO), 1% Glutamine (Mediatech, Manassas, VA), 1% antibiotics (Mediatech, Manassas, VA). Compounds for primary FP-based HTS screening were from Prestwick, Microsource, University of Kansas Center of Excellence in Chemical Methodologies & Library Development (KU CMLD, Lawrence, KS), and Chembridge libraries. Compounds for MTT and SPR validation experiment were purchased from Microsource (Gaylordsville, CT) and Hit2lead Company (San Diego, CA). Acridine analogues, compound 1–6, were from our in-house library (provided by Specialized Chemistry Center, University of Kansas, Lawrence, KS); compound 7–17 were synthesized as described in supplementary information. (–)-Gossypol was isolated from racemic gossypol as we previously described. ABT-263 and DMSO were purchased from Sigma. MTT-based cytotoxicity assay and western blot analysis was carried out according to our previous publications. The primary antibodies used were LC3B (#2775) (Cell signaling Technology, Danvers, MA) and β-actin (A5441) (Sigma).

[2] = test system: PC-3 and PC-3a prostate cancer cells; experiment: Western blot of autophagy markers (LC3 conversion, P62); format: cell-based, Human; settings: 24 h treatment
Method: (§2) Figure 5 Acridine compounds induce autophagy in prostate cancer cells (A) LC3-II conversion in western blot analysis indicated the activity of autophagy. Cells were treated with DMSO or compounds for 24 h, and then lysed and processed for western blot analysis of LC3. (–)G and EBSS were used as positive controls. […] Yellow puncta indicate autophagosome (overlay of red and green fluorescence); red puncta indicate autolysosome (due to green fluorescence quenching at the acidic condition). Cells expressing RFP-GFP-LC3 were treated with compounds A13, A15 or A21 at indicated concentration for 24 h.
Figure 8 Acridine compounds induce autophagy in PC-3 and PC-3a cancer cells LC3-II conversion in western blot analysis indicated the activity of autophagy. Cells were treated with DMSO or compounds for 24 h, and then lysed and processed for western blot analysis of LC3. (–)G and EBSS were used as positive controls.
as §1

[3] = test system: PC-3 and PC-3a cells; experiment: RFP-GFP-LC3 fluorescence microscopy (autophagic flux); format: cell-based, Human; settings: cells transfected with RFP-GFP-LC3, treated 24 h; PC-3a and PC-3
Method: as §2
PC-3 and PC-3a cells were transfected with ptfLC3 plasmid using Lipofectamine 2000 (Invitrogen Life Technologies, Carlsbad, CA). ptfLC3 was a gift from Tamotsu Yoshimori (Addgene plasmid # 21074), and is a tandem fluorescent-tagged LC3 with mRFP (mRFP, monomeric Red Fluorescent Protein) and EGFP (EGFP, Enhanced Green Fluorescent Protein). Twenty-four hours after transfection, cells were treated with compounds for 24 h, then fixed in 4% formaldehyde for 10 min. Cells were then washed three times with PBS, stained with DAPI (0.5 μg/ml in PBS) for 5 min and observed under a fluorescence microscope (OLYMPUS IX81, Tokyo, Japan) with X 40 lens.

[4] = biological target: T1, Bcl-xL protein (Homo sapiens, UniProt Q07817); experiment: Surface plasmon resonance assay, immobilized Bcl-xL; format: binding; settings: SPR; 10 μM compound; Bcl-xL immobilized 10000 RU
T1 construct: made in house
T1 sequence (Q07817 whole entry): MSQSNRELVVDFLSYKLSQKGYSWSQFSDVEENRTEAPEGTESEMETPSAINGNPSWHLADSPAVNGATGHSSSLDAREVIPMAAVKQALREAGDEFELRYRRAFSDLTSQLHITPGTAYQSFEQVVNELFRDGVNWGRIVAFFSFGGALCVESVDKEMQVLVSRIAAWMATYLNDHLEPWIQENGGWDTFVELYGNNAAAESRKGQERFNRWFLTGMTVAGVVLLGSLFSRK
Method: The surface plasmon resonance experiments were performed using a Biacore 3000 (GE Healthcare Pittsburgh, PA) equipped with a research-grade CM5 sensor chip. The ligand (Bcl-xL) was immobilized using amine-coupling chemistry. The surfaces of flow cells on a Biacore sensor chip CM5 were activated for 7 min with a 1:1 mixture of 0.1 M NHS (N-hydroxysuccinimide) and 0.1 M EDC (3-(N,N-dimethylamino) propyl-N-ethylcarbodiimide) at a flow rate of 5 μL/min. The ligand (Bcl-xL) at a concentration of 180 μg/mL in 10 mM sodium acetate, pH 4.5, was immobilized at a density of about 10000 RU on flow cell 2; the ligand (SUMO-Bcl-2, 37.5 kDa, > 90% pure based on SDS–PAGE) at a concentration of 44 μg/ml in 10 mM sodium acetate, pH 4.5, was immobilized at a density of 10000 RU on flow cell 3; flow cell 1 was left blank to serve as a reference surface. All the surfaces were blocked with a 7 min injection of 1 M ethanolamine, pH 8.0.
For kinetic analysis, a concentration series of analyte were injected over the flow cells at a flow rate of 60 μL/min at 20 °C. The complex was allowed to associate and dissociate for 120 and 180 s, respectively. For binding studies, analyte (or test compound) was injected over the two flow cells in duplicate at indicated concentration at a flow rate of 60 μL/min at 20 °C. The running buffer consisted of 20 mM HEPES, 150 mM NaCl, 3 mM EDTA, 1 mM DTT, 0.05% P20, 5% DMSO, pH 7.4. The complex was allowed to associate and dissociate for 120 and 180 s, respectively. The buffer samples containing a range of 4–6% DMSO were injected at the beginning, used for solvent correction. The surfaces were regenerated between binding cycles with a 5 s injection of 5 mM NaOH for compounds and 10 mM Glycine pH 2.5 for 20-mer.
All measurements were taken with flow cell 1 as a reference (i.e. sensorgram depicts “2–1 correction”) and corrected for DMSO bulk differences via the calibration curves. To obtain kinetic rate constants (Ka and Kd), corrected response data were fit to a simple 1:1 interaction model using local fit (includes correction for mass transport limitations) available within Biaevaluation 3.1 software or Scrubber2 software. The equilibrium dissociation constant (KD) was determined by Kd/Ka.

Nc1ccc2cc3ccc(N)cc3nc2c1 [Compound A13, PROFLAVINE HEMISULFATE]
IC50 [1]: 1.08 ± 0.1 µM
LC3-I to LC3-II conversion [2]: Increased level of LC3-II
RFP-GFP-LC3 puncta [3]: many strong red puncta
binding level to Bcl-xL protein in SPR [4]: could bind to Bcl-xL

CCOc1ccc2nc3cc(N)ccc3c(N)c2c1 [Compound A15, ETHACRIDINE LACTATE]
IC50 [1]: 1.61 ± 0.42 µM
LC3-I to LC3-II conversion [2]: Increased level of LC3-II
RFP-GFP-LC3 puncta [3]: many strong red puncta
binding level to Bcl-xL protein in SPR [4]: could bind to Bcl-xL

CCN(CC)CCCC(C)Nc1c2ccc(Cl)cc2nc2ccc(OC)cc12 (stereo not drawn) [Compound A21, QUINACRINE HYDROCHLORIDE]
IC50 [1]: 0.77 ± 0.1 µM
LC3-I to LC3-II conversion [2]: Increased level of LC3-II
RFP-GFP-LC3 puncta [3]: many strong red puncta
binding level to Bcl-xL protein in SPR [4]: could bind to Bcl-xL
